How the values were obtained:
MEIS1 mRNA expression = MEIS1 mRNA expression assay (Quantigene Singleplex) in MOLM14 cells; format: cell-based, human; conditions: 48 hours incubation
In short: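 MOLM14 cells, 3,750/well, exposed to increasing compound concentrations for 48 h. MEIS1 mRNA measured by QuantiGene Singleplex branched-DNA hybridization (lysis 45 min, hybridization 18–22 h, both 55 °C), normalized to RPL28. IC50 fitted to background-corrected fold change versus DMSO.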

[1] = biological target: T1, menin/MLL (terbium chelate-labeled menin, FITC-MBM1 peptide) (Homo sapiens, UniProt O00255, T541A); assay: Menin/MLL homogenous time-resolved fluorescence (HTRF) assay; format: binding; conditions: 30 min incubation
T1 construct: Menin (a.a 1-610-6xhis tag, 2.3 mg/mL in 20 mM Hepes)
T1 sequence (O00255 with tags, fused parts or gaps T541A): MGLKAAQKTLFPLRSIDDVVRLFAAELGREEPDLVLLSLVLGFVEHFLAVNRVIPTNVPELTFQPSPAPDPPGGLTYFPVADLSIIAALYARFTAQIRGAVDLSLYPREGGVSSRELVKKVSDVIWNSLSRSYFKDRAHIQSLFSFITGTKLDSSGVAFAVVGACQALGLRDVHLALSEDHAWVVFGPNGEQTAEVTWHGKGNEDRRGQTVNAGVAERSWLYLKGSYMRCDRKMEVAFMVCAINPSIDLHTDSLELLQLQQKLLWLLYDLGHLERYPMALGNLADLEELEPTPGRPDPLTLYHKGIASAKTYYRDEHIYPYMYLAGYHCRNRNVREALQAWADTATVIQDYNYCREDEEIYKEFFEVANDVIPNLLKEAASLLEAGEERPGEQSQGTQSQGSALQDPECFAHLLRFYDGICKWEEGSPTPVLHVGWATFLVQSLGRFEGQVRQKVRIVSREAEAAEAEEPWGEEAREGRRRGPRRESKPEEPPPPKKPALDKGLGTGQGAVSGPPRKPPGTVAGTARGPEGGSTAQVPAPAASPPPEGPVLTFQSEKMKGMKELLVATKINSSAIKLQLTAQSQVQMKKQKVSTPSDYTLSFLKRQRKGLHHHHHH
In short: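 Terbium-labeled menin (a.a. 1-610, His-tagged; […]) pre-incubated 30 min with compound, then 75 nM FITC-MBM1 peptide added for 15 min at ambient temperature in Tris pH 7.5 buffer, 0.5% DMSO. HTRF 520/490 nm ratio read; IC50 from 11-point four-fold titrations, typically from 10 μM.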

| IC50 (MEIS1 mRNA expression; Homo sapiens, MOLM-14, 48 h) | IC50 [1] | IC50 (MEIS1 mRNA expression) | SMILES |
| --- | --- | --- | --- |
| ~2300 nM | 1.63 nM |  | Cc1cncc2c1c(CC1CN([C@@H](C)C3CCS(=O)(=O)CC3)C1)cn2-c1ccc(F)cc1C(=O)N(C)C(C)C (single isomer, unassigned) [Compound 213b] |
| ~105 nM | 0.073 nM |  | Cc1cncc2c1c(C[C@@H]1CCN(C[C@@H]3CCCCO3)C1)cn2-c1ccc(F)cc1C(=O)N(C)C(C)C (single isomer, unassigned) [Compound 147b] |
|  | 0.152 nM | 259 nM | CC(=O)N1CCC(N2CC(Cc3cn(-c4ccc(F)cc4C(=O)N(C)C(C)C)c4cncc(C)c34)C2)C[C@@H]1C (single isomer, unassigned) [Compound 293b] |
| 504 nM | 0.932 nM |  | Cc1cncc2c1c(CC1CCN(C[C@@H]3CNC(=O)C3)CC1)cn2-c1ccc(F)cc1C(=O)N(C)C(C)C (single isomer, unassigned) [Compound 186b] |
| > 1000 nM | 2.24 nM |  | CC(=O)N1CCC([C@H](C)N2CC[C@H](Cc3cn(-c4ccc(F)cc4[S@@](=N)(=O)C(C)C)c4cncc(C)c34)C2)CC1 (single isomer, unassigned) [Compound 233b] |
| 419 nM | 0.447 nM |  | Cc1cncc2c1c(CC1CCN(CC3CNC(=O)C3)CC1)cn2-c1ccc(F)cc1C(=O)N(C)C(C)C (single isomer, unassigned) [Compound 186a] |
| 1770 nM | 3.1 nM |  | Cc1cncc2c1c(C[C@@H]1CCN([C@@H](C)C3CCOCC3)C1)cn2-c1ccc(F)cc1[S@@](=N)(=O)C(C)C (single isomer, unassigned) [Compound 182b] |
| 247 nM | 0.171 nM |  | CC(=O)N1CCC([C@@H](C)N2CC[C@H](Cc3cn(-c4ccc(F)cc4[S@@](=N)(=O)C(C)C)c4cncc(C)c34)C2)CC1 (single isomer, unassigned) [Compound 233a] |
| > 1000 nM | 2.77 nM |  | CC(=O)N1CCC(CN2CC[C@H](Cc3cn(-c4ccc(F)cc4[S@]4(=O)=NCCC4)c4cncc(C)c34)C2)CC1 (single isomer, unassigned) [Compound 224b] |
| 25 nM | 0.092 nM |  | Cc1cncc2c1c(CC1CN([C@@H](C(C)C)[C@H]3C[C@H](N4CCN(S(C)(=O)=O)CC4)C3)C1)cn2-c1ccc(F)cc1C(=O)N(C)C(C)C (single isomer, unassigned) [Compound 34b] |
| 47 nM | 0.077 nM |  | CCN(C(=O)c1cc(F)ccc1-n1cc(CC2CN(C(C(C)C)[C@H]3C[C@H](N4CCN(C(C)=O)CC4)C3)C2)c2c(C)cncc21)C(C)C (some centres unmarked) [Compound 35b] |
| 42 nM | 0.975 nM |  | CC(=O)N1CCN(CCC[C@@H](C(C)C)N2CC[C@H](Cc3cn(-c4ccc(F)cc4C(=O)N(C)C(C)C)c4cncc(C)c34)C2)CC1 (single isomer, unassigned) [Compound 9b] |
| 148 nM | 0.459 nM |  | CC(=O)N1CCC(N2CC(Cc3cn(-c4ccc(F)cc4C(=O)N(C)C(C)C)c4cncc(C)c34)C2)C[C@@H]1C (single isomer, unassigned) [Compound 293a] |
| > 1000 nM | 0.111 nM |  | Cc1cncc2c1c(CC1CN([C@H]3CCN4C(=O)CCC4C3)C1)cn2-c1ccc(F)cc1C(=O)N(C)C(C)C (single isomer, unassigned) [Compound 309b] |

The next lines start with the molecule.

| SMILES | IC50 (MEIS1 mRNA expression; Homo sapiens, MOLM-14, 48 h) | IC50 [1] | IC50 (MEIS1 mRNA expression) |
| --- | --- | --- | --- |
| CC(=O)N1CCCC(N2CC[C@@H](Cc3cn(-c4ccc(F)cc4C(=O)N(C)C(C)C)c4cncc(C)c34)C2)CC1 (mixture of isomers) [Compound 216] | 100 nM | 0.187 nM |  |
| Cc1cncc2c1c(CC1CN(CC3CCOCC3)C1)cn2-c1ccc(F)cc1C(=O)N1CCC12COC2 [Compound 266] | 431 nM | 0.349 nM |  |
| COC1CC(C)N(C(=O)c2cc(F)ccc2-n2cc(C[C@@H]3CCN(CC4CCN(C(C)=O)CC4)C3)c3c(C)cncc32)C1 (some centres unmarked) [Compound 318] | 1380 nM | 0.22 nM |  |
| Cc1cncc2c1c(CC1CCN(CC3CCN(C(=O)C(C)(C)O)CC3)CC1)cn2-c1ccc(F)cc1C(=O)N(C)C(C)C [Compound 237] | 52 nM | 0.149 nM |  |
| Cc1cncc2c1c(C[C@H]1CCN(CC3CCCC(=O)N3)C1)cn2-c1ccc(F)cc1C(=O)N(C)C(C)C (mixture of isomers) [Compound 89] | ~895 nM | 0.183 nM |  |
| CC(=O)N1CCC(N2CC[C@@H](Cc3cn(-c4ccc(F)cc4C(=O)N(C)C(C)C)c4cncc(C)c34)C2)C(CO)C1 (mixture of isomers) [Compound 248] | 11 nM | 0.255 nM |  |
| CCC([C@H]1C[C@@H](N2C[C@H]3CN(C(C)=O)C[C@@H]3C2)C1)N1CC[C@H](Cc2cn(-c3ccc(F)cc3C(=O)N(C)C(C)C)c3cncc(C)c23)C1 (mixture of isomers) [Compound 23] | 7 nM | 0.07 nM |  |
| Cc1cncc2c1c(C[C@H]1CCN(C(CCCN3CCC(S(C)(=O)=O)CC3)C(C)C)C1)cn2-c1ccc(F)cc1C(=O)N(C)C(C)C (mixture of isomers) [Compound 11] | 6 nM | 0.034 nM |  |
| CNC(=O)c1cccc(CN2CC(Cc3cn(-c4ccc(F)cc4C(=O)N(C)C(C)C)c4cncc(C)c34)C2)c1 [Compound 283] | 440 nM | 0.61 nM |  |
| Cc1cncc2c1c(CC1CN(CC3CCCOC3)C1)cn2-c1ccc(F)cc1C(=O)N(C)C(C)C (centres unmarked) [Compound 289] | 31 nM | 0.055 nM |  |
| Cc1cncc2c1c(C[C@H]1CCN(CC3(C)CCN(C(N)=O)CC3)C1)cn2-c1ccc(F)cc1C(=O)N(C)C(C)C [Compound 218] | 48 nM | 0.094 nM |  |
| Cc1cncc2c1c(CC1CN(C[C@H]3CC[C@H](C(=O)N(C)C)CC3)C1)cn2-c1ccc(F)cc1C(=O)N(C)C(C)C [Compound 142] | 10 nM | 0.086 nM |  |
| Cc1cncc2c1c(CC1CN(C[C@H]3CC[C@H](NS(C)(=O)=O)CC3)C1)cn2-c1ccc(F)cc1C(=O)N(C)C(C)C [Compound 115] | 11 nM | 0.021 nM |  |
| COC(=O)N1CCC(CN2CC[C@@H](Cc3cn(-c4ccc(F)cc4C(=O)N(C[C@H](C)O)C(C)C)c4cncc(C)c34)C2)CC1 [Compound 335] | 18 nM | 0.193 nM |  |
| CC(=O)N1CCC(N2CC[C@@H](Cc3cn(-c4ccc(F)cc4C(=O)N(C)C(C)C)c4cncc(C)c34)C2)C(C)(C)C1 (mixture of isomers) [Compound 234] | 18 nM | ~0.068 nM |  |
| Cc1cncc2c1c(CC1CN(C3CC4(CC(NC(=O)OC(C)(C)C)C4)C3)C1)cn2-c1ccc(F)cc1C(=O)N(C)C(C)C (centres unmarked) [Compound 91] | 94 nM | 0.155 nM |  |
| Cc1cncc2c1c(CC1CN(CC3CCOCC3)C1)cn2-c1ccc(F)cc1C(=O)N(C)C1CC1 [Compound 265] | 46 nM | 0.097 nM |  |
| CC(=O)N1CCCC(N2CC[C@H](Cc3cn(-c4ccc(F)cc4C(=O)N(C)C(C)C)c4cncc(C)c34)C2)CC1 (mixture of isomers) [Compound 222] | 259 nM | 0.103 nM |  |
| CC(=O)N1CC2(CC(CN3CCC(Cc4cn(-c5ccc(F)cc5C(=O)N(C)C(C)C)c5cncc(C)c45)C3)C2)C1 (centres unmarked) [Compound 107] | 226 nM | 0.188 nM |  |
| Cc1cncc2c1c(CC1CN(CC3CCOCC3)C1)cn2-c1ccc(F)cc1C(=O)N1CCCCC1C (centres unmarked) [Compound 280] | 51 nM | 0.077 nM |  |

Reference: patent publication US20230250096A1, “SUBSTITUTED PHENYL-1H-PYRROLO[2,3-c] PYRIDINE DERIVATIVES” (Janssen Pharmaceutica NV, priority 2021, published 2023)
